Laboratory results: patent publication US11123337B2, “4-methylsulfonyl-substituted piperidine urea compounds” (MYOKARDIA, INC., priority 2015, dated 2021)

These compounds were tested against bovine cardiac myosin (Bos taurus, UniProt Q9BE39) (assay: Myosin activation assay (PK/LDH-coupled ATPase, bovine cardiac myofibrils)). Settings: AC20 = concentration at which total response is increased by twenty percent.
bovine cardiac myosin, sequence (Q9BE39 whole entry): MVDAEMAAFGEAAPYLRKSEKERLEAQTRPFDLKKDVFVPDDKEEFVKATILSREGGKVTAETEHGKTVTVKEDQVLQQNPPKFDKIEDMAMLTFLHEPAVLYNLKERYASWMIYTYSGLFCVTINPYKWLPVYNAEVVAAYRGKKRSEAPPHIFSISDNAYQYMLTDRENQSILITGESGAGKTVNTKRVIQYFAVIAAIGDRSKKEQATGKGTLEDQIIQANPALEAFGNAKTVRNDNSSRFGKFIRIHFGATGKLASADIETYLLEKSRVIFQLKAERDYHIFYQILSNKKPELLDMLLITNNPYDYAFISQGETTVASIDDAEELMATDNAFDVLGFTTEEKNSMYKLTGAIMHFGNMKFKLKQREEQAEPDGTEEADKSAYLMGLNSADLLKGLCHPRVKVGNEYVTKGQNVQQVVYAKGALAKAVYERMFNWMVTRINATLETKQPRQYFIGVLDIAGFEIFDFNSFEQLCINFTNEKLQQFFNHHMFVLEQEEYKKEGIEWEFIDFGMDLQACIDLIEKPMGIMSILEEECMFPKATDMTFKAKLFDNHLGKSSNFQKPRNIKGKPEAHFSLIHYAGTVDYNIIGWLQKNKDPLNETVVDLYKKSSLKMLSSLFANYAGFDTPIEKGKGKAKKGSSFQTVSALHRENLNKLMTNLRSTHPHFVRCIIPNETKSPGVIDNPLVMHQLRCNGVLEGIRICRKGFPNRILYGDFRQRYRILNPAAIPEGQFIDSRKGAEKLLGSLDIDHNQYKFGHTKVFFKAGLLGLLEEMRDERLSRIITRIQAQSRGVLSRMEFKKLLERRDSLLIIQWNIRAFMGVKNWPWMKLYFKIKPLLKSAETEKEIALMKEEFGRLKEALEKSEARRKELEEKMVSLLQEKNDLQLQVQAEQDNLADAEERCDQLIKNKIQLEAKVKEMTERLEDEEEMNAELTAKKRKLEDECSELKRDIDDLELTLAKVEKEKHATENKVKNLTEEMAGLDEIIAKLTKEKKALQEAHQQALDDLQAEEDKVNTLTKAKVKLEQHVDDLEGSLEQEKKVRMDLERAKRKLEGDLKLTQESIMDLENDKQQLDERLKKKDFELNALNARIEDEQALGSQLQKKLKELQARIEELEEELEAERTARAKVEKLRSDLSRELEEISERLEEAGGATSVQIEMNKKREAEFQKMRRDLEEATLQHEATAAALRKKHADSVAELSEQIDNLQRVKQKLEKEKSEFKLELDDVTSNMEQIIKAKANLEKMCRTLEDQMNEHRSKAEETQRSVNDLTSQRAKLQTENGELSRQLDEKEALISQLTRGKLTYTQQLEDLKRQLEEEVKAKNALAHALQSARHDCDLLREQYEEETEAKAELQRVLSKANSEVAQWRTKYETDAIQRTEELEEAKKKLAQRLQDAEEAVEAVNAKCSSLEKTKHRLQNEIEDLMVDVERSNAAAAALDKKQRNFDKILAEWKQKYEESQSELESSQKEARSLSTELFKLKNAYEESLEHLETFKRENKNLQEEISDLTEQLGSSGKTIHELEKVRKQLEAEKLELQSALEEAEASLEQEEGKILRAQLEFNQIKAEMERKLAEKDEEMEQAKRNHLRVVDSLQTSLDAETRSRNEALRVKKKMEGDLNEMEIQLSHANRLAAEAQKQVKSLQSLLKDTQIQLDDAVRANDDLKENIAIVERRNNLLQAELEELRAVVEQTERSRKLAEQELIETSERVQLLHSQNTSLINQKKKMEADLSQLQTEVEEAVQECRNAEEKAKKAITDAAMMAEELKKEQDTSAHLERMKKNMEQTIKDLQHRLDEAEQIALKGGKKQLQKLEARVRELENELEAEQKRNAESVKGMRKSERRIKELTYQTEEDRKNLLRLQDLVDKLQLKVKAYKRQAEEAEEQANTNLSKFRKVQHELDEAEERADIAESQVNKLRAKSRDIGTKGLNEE
bovine cardiac myosin, sequence (P85100 whole entry partner): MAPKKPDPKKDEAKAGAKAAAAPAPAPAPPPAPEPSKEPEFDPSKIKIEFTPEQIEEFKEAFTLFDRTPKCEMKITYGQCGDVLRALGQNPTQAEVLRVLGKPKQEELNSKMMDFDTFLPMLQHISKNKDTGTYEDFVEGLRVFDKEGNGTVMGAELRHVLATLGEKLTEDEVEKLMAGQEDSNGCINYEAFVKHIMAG
bovine cardiac myosin, sequence (Q3SZE5 whole entry partner): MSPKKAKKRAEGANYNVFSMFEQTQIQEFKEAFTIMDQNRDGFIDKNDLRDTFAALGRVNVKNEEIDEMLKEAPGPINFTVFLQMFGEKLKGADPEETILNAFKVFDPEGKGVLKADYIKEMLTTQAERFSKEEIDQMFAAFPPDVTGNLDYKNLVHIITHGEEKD
Type: biochemical
Method in brief: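 Skinned bovine cardiac myofibrils (1 mg/mL) in PIPES/MgCl2 buffer pH 6.8 at free Ca2+ giving ~50% (pCa ~6) or <5% (pCa 10) activation, with 50 μM ATP and 3.3% DMSO. ATPase rate from NADH absorbance at 340 nm (PK/LDH coupling) over 15 min at ambient temperature. AC20/AC50 from a four-parameter fit of DMSO-normalised rates.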
For `CC(F)(C1CCN(C(=O)Nc2ccon2)CC1)S(=O)(=O)c1cccc(F)c1` (centres unmarked) [Compound 234, 4-(1-fluoro-1-((3-fluorophenyl)sulfonyl)ethyl)-N-(isoxazol-3-yl)piperidine-1-carboxamide], the “Myosin Activation (AC20)” value was “+++ (+++ represents myosin activation value AC20 < 2 μM)”. With `Cc1cnccc1NC(=O)N1CCC(C(C)(C)S(=O)(=O)c2cccc(F)c2)CC1` [Compound 214, 4-(2-((3-fluorophenyl)sulfonyl)propan-2-yl)-N-(3-methylpyridin-4-yl)piperidine-1-carboxamide] the “Myosin Activation (AC20)” value was “+ (+ represents myosin activation value AC20 > 5 μM)”. For `CC(C)(C1(F)CCN(C(=O)Nc2ccnnc2)CC1)S(=O)(=O)c1cccc(F)c1` [Compound 30, 4-Fluoro-4-(2-((3-fluorophenyl)sulfonyl)propan-2-yl)-N-(pyridazin-4-yl)piperidine-1-carboxamide], the “Myosin Activation (AC20)” value was “++ (++ represents myosin activation value AC20 from 2 μM-5 μM)”. `CC(C)(C1CCN(C(=O)Nc2ccnnc2)CC1)S(=O)(=O)c1ccc(C(F)(F)F)nc1` [Compound 171, N-(pyridazin-4-yl)-4-(2-((6-(trifluoromethyl)pyridin-3-yl)sulfonyl)propan-2-yl)piperidine-1-carboxamide] was tested, and the “Myosin Activation (AC20)” value was “++ (++ represents myosin activation value AC20 from 2 μM-5 μM)”. `CC(F)(C1CCN(C(=O)Nc2ccc(F)nc2)CC1)S(=O)(=O)c1cccc(C#N)c1` (centres unmarked) [Compound 241, 4-(1-((3-cyanophenyl)sulfonyl)-1-fluoroethyl)-N-(6-fluoropyridin-3-yl)piperidine-1-carboxamide] was tested, and the “Myosin Activation (AC20)” value was “+ (+ represents myosin activation value AC20 > 5 μM)”. With `Cc1ncc(NC(=O)N2CCC(C(C)(C)S(=O)(=O)c3cccc(F)c3)CC2)cn1` [Compound 141, 4-(2-((3-fluorophenyl)sulfonyl)propan-2-yl)-N-(2-methylpyrimidin-5-yl)piperidine-1-carboxamide] the “Myosin Activation (AC20)” value was “+ (+ represents myosin activation value AC20 > 5 μM)”. With `O=C(Nc1ccns1)N1CCC(C2(S(=O)(=O)c3cccc(F)c3)CC2)CC1` [Compound 217, 4-(1-((3-fluorophenyl)sulfonyl)cyclopropyl)-N-(isothiazol-5-yl)piperidine-1-carboxamide] the “Myosin Activation (AC20)” value was “+++ (+++ represents myosin activation value AC20 < 2 μM)”. With `Cc1nocc1NC(=O)N1CCC(C(C)(F)S(=O)(=O)c2cccc(F)c2)CC1` (centres unmarked) [Compound 238, 4-(1-fluoro-1-((3-fluorophenyl)sulfonyl)ethyl)-N-(3-methylisoxazol-4-yl)piperidine-1-carboxamide] the “Myosin Activation (AC20)” value was “+ (+ represents myosin activation value AC20 > 5 μM)”. In the case of `Cc1ccc(NC(=O)N2CCC([C@](C)(F)S(=O)(=O)c3cn(C)nc3C(F)F)CC2)cn1` [Compound 260, (R)-4-(1-((3-(difluoromethyl)-1-methyl-1H-pyrazol-4-yl)sulfonyl)-1-fluoroethyl)-N-(6-methylpyridin-3-yl)piperidine-1-carboxamide], the “Myosin Activation (AC20)” value is reported as “++ (++ represents myosin activation value AC20 from 2 μM-5 μM)”. With `Cn1nccc1S(=O)(=O)C(C)(F)C1CCN(C(=O)Nc2ccnnc2)CC1` (centres unmarked) [Compound 271, 4-(1-fluoro-1-((1-methyl-1H-pyrazol-5-yl)sulfonyl)ethyl)-N-(pyridazin-4-yl)piperidine-1-carboxamide] the “Myosin Activation (AC20)” value was “++ (++ represents myosin activation value AC20 from 2 μM-5 μM)”. `Cn1cc(S(=O)(=O)C(C)(F)C2CCN(C(=O)Nc3ccon3)CC2)c(Cl)n1` (centres unmarked) [Compound 19, 4-(1-((3-Chloro-1-methyl-1H-pyrazol-4-yl)sulfonyl)-1-fluoroethyl)-N-(isoxazol-3-yl)piperidine-1-carboxamide] was tested, and the “Myosin Activation (AC20)” value was “+ (+ represents myosin activation value AC20 > 5 μM)”. In the case of `Cc1cc(NC(=O)N2CCC(C(C)(C)S(=O)(=O)c3cccc(F)c3)CC2)no1` [Compound 142, 4-(2-((3-fluorophenyl)sulfonyl)propan-2-yl)-N-(5-methylisoxazol-3-yl)piperidine-1-carboxamide], the “Myosin Activation (AC20)” value is reported as “+ (+ represents myosin activation value AC20 > 5 μM)”. With `CC(C)(C1CCN(C(=O)Nc2ccon2)CC1)S(=O)(=O)c1ccc(C#N)cc1` [Compound 102, 4-(2-((4-cyanophenyl)sulfonyl)propan-2-yl)-N-(isoxazol-3-yl)piperidine-1-carboxamide] the “Myosin Activation (AC20)” value was “+ (+ represents myosin activation value AC20 > 5 μM)”. In the case of `C[C@@H](O)c1cc(NC(=O)N2CCC([C@@](C)(F)S(=O)(=O)c3cn(C)nc3C(F)F)CC2)ccn1` [Compound 304, 4-((S)-1-((3-(difluoromethyl)-1-methyl-1H-pyrazol-4-yl)sulfonyl)-1-fluoroethyl)-N-(2-((R)-1-hydroxyethyl)pyridin-4-yl)piperidine-1-carboxamide], the “Myosin Activation (AC20)” value is reported as “+ (+ represents myosin activation value AC20 > 5 μM)”. `CC(F)(C1CCN(C(=O)Nc2ccno2)CC1)S(=O)(=O)c1cccc(F)c1` (centres unmarked) [Compound 11, 4-(1-Fluoro-1-((3-fluorophenyl)sulfonyl)ethyl)-N-(isoxazol-5-yl)piperidine-1-carboxamide] was tested, and the “Myosin Activation (AC20)” value was “++ (++ represents myosin activation value AC20 from 2 μM-5 μM)”. With `Cc1ncc(NC(=O)N2CCC(C(C)(C)S(=O)(=O)c3cn(C)nc3C(F)F)CC2)cn1` [Compound 143, 4-(2-((3-(difluoromethyl)-1-methyl-1H-pyrazol-4-yl)sulfonyl)propan-2-yl)-N-(2-methylpyrimidin-5-yl)piperidine-1-carboxamide] the “Myosin Activation (AC20)” value was “+ (+ represents myosin activation value AC20 > 5 μM)”. For `CCn1nccc1S(=O)(=O)C(C)(C)C1CCN(C(=O)Nc2cnns2)CC1` [Compound 183, 4-(2-((1-ethyl-1H-pyrazol-5-yl)sulfonyl)propan-2-yl)-N-(1,2,3-thiadiazol-5-yl)piperidine-1-carboxamide], the “Myosin Activation (AC20)” value was “++ (++ represents myosin activation value AC20 from 2 μM-5 μM)”. `O=C(Nc1ccnnc1)N1CCC(C(F)(F)S(=O)(=O)c2cc(OC(F)(F)F)ccc2Cl)CC1` [Compound 74, 4-(((2-chloro-5-(trifluoromethoxy)phenyl)sulfonyl)difluoromethyl)-N-(pyridazin-4-yl)piperidine-1-carboxamide] was tested, and the “Myosin Activation (AC20)” value was “+++ (+++ represents myosin activation value AC20 < 2 μM)”. In the case of `Cn1cnc(S(=O)(=O)C(C)(F)C2CCN(C(=O)Nc3ccnnc3)CC2)c1` (centres unmarked) [Compound 272, 4-(1-fluoro-1-((1-methyl-1H-imidazol-4-yl)sulfonyl)ethyl)-N-(pyridazin-4-yl)piperidine-1-carboxamide], the “Myosin Activation (AC20)” value is reported as “+ (+ represents myosin activation value AC20 > 5 μM)”. With `Cn1cnc(S(=O)(=O)C2(C3CCN(C(=O)Nc4ccnnc4)CC3)CCC2)c1` [Compound 173, 4-(1-((1-methyl-1H-imidazol-4-yl)sulfonyl)cyclobutyl)-N-(pyridazin-4-yl)piperidine-1-carboxamide] the “Myosin Activation (AC20)” value was “+ (+ represents myosin activation value AC20 > 5 μM)”. For `O=C(Nc1ccnnc1)N1CCC(C2(S(=O)(=O)c3cccc(F)c3)CC(F)(F)C2)CC1` [Compound 28, 4-(3,3-Difluoro-1-((3-fluorophenyl)sulfonyl)cyclobutyl)-N-(pyridazin-4-yl)piperidine-1-carboxamide], the “Myosin Activation (AC20)” value was “++ (++ represents myosin activation value AC20 from 2 μM-5 μM)”. With `Cn1nccc1S(=O)(=O)C(C)(C)C1CCN(C(=O)Nc2ccncc2)CC1` [Compound 194, 4-(2-((1-methyl-1H-pyrazol-5-yl)sulfonyl)propan-2-yl)-N-(pyridin-4-yl)piperidine-1-carboxamide] the “Myosin Activation (AC20)” value was “++ (++ represents myosin activation value AC20 from 2 μM-5 μM)”. For `N#Cc1ccccc1S(=O)(=O)C(F)(F)C1CCN(C(=O)Nc2ccnnc2)CC1` [Compound 54, 4-(((2-cyanophenyl)sulfonyl)difluoromethyl)-N-(pyridazin-4-yl)piperidine-1-carboxamide], the “Myosin Activation (AC20)” value was “++ (++ represents myosin activation value AC20 from 2 μM-5 μM)”. In the case of `Cn1nccc1S(=O)(=O)C(C)(C)C1CCN(C(=O)Nc2ccc(F)nc2)CC1` [Compound 124, N-(6-fluoropyridin-3-yl)-4-(2-((1-methyl-1H-pyrazol-5-yl)sulfonyl)propan-2-yl)piperidine-1-carboxamide], the “Myosin Activation (AC20)” value is reported as “+ (+ represents myosin activation value AC20 > 5 μM)”. With `Cn1nccc1S(=O)(=O)C(C)(F)C1CCN(C(=O)Nc2ccon2)CC1` (centres unmarked) [Compound 280, 4-(1-fluoro-1-((1-methyl-1H-pyrazol-5-yl)sulfonyl)ethyl)-N-(isoxazol-3-yl)piperidine-1-carboxamide] the “Myosin Activation (AC20)” value was “+ (+ represents myosin activation value AC20 > 5 μM)”. `Cn1nc(C(F)(F)F)cc1S(=O)(=O)C(C)(C)C1CCN(C(=O)Nc2ccnnc2)CC1` [Compound 137, 4-(2-((1-methyl-3-(trifluoromethyl)-1H-pyrazol-5-yl)sulfonyl)propan-2-yl)-N-(pyridazin-4-yl)piperidine-1-carboxamide] was tested, and the “Myosin Activation (AC20)” value was “+++ (+++ represents myosin activation value AC20 < 2 μM)”. In the case of `CC(F)(C1CCN(C(=O)Nc2cccnc2)CC1)S(=O)(=O)c1cccc(F)c1` (centres unmarked) [Compound 224, 4-(1-fluoro-1-((3-fluorophenyl)sulfonyl)ethyl)-N-(pyridin-3-yl)piperidine-1-carboxamide], the “Myosin Activation (AC20)” value is reported as “++ (++ represents myosin activation value AC20 from 2 μM-5 μM)”. With `COc1ccc(S(=O)(=O)[C@@](C)(F)C2CCN(C(=O)Nc3ccon3)CC2)cn1` [Compound 308, (R)-4-(1-fluoro-1-((6-methoxypyridin-3-yl)sulfonyl)ethyl)-N-(isoxazol-3-yl)piperidine-1-carboxamide] the “Myosin Activation (AC20)” value was “++ (++ represents myosin activation value AC20 from 2 μM-5 μM)”. `Cn1nc(Cl)cc1S(=O)(=O)C(C)(C)C1CCN(C(=O)Nc2ccnc(F)c2)CC1` [Compound 115, 4-(2-((3-chloro-1-methyl-1H-pyrazol-5-yl)sulfonyl)propan-2-yl)-N-(2-fluoropyridin-4-yl)piperidine-1-carboxamide] was tested, and the “Myosin Activation (AC20)” value was “++ (++ represents myosin activation value AC20 from 2 μM-5 μM)”.
